Measured values published in US20130142882A1, “METHODS AND COMPOSITIONS FOR TREATMENT, MODIFICATION AND MANAGEMENT OF BONE CANCER PAIN” (GOLDEN BIOTECHNOLOGY CORPORATION, priority 2011, published 2013).

Test system: rat model of bone cancer pain (Walker 256 rat mammary gland carcinoma cells injected into the right tibia)
Test: Mechanical allodynia (Von Frey test) in a rat model of bone cancer pain
Type: in vivo, Rat (Sprague-Dawley)
Details: 30 μg/kg s.c. every second day
Method: The objective of this study was to assess the potential anti-nociceptive and anti-tumourigenic effects of Compound 1, at doses of 15, 30 and 45 mg/kg, in an animal model of bone cancer pain. Metastasis of cancer cells to the bone was modeled by injecting Walker 256 rat mammary gland carcinoma cells into the medullary cavity of the right tibia (Mao-Yinga, et al. A rat model of bone cancer pain induced by intra-tibia inoculation of Walker 256 mammary gland carcinoma cells. Biochem Biophys Res Commun 2006; 345: 1292-1298). The development of mechanical allodynia was monitored using an established behavioural test (Von Frey test). Treatment administration was chronic, from the day of surgery, and administered twice daily for 21 days to determine whether there was a prophylactic effect on the development of mechanical allodynia. Zoledronic acid was used as a reference substance. No regulatory test guidelines were applicable to this study.
Rats have been studied in this model of bone cancer pain. The route of administration of Compound 1 and vehicle was oral. The doses of Compound 1 were 15, 30 and 45 mg/kg, twice a day (approximately 10 h apart) for 21 days.
The dose of zoledronic acid was 30 μg/kg, as a single administration, every second day from the day of surgery, based on historical data. The route of administration of zoledronic acid was subcutaneous.
The dose volume for test substance and vehicle treatments was 5 mL/kg. The vehicle for Compound 1 was corn oil. Each rat allocated to test substance or vehicle treatments received an oral dose, by gavage, twice daily (approximately 8 am and 6 pm) for 21 consecutive days. The dose volume for the reference substance treatment was 1 mL/kg. Each rat allocated to reference substance treatment received a single subcutaneous dose, by injection (approximately 8 am) every second day from the day of surgery.
Cell preparation. Walker 256 rat mammary gland carcinoma cells (obtained from the American Type Culture Collection (ATCC)) were harvested from sub-confluent cultures growing in vitro and the number of viable cells determined. Cells were then re-suspended in sterile phosphate buffered saline (PBS) at a concentration of 4×10^5 cells. Female Sprague-Dawley rats were intratibially injected in the right leg with 4×10^5 Walker 256 rat mammary gland carcinoma cells in a volume of 6 μL as detailed in Surgical procedure below.
Baseline behavioural testing. The rats were moved to the procedure room 5 days prior to behavioural testing. The rats were then housed, dosed and observed in the procedure room. The behavioural test was performed on all rats on 2 separate occasions prior to surgery, to establish baseline values. Pre-surgery baseline values were taken as the data from the final (second) day of testing (the data from the first day of testing was not included but classed as part of the acclimatisation).
Mechanical allodynia (Von Frey test): Each animal was placed in a wire mesh cage and a series of Von Frey filaments were applied to the plantar surface of the hind paw, from below. The filaments were applied in ascending order (starting with the weakest force), and the withdrawal threshold for both the left and right hind paws were evaluated. Each filament was indented on the mid-plantar surface of the foot to the point where it just started to bend; this was repeated approximately 8 to 10 times per filament at a frequency of approximately 1 Hz. The withdrawal threshold was defined as the lowest force of two or more consecutive Von Frey filaments to elicit a reflex withdrawal response (i.e. a brief paw flick).
Surgical procedure. The animals were surgically prepared over 2 days. Each rat was anaesthetised as necessary with isofluorane in […]. The surface around the incision site was shaved and sterilised. Under aseptic conditions, an incision was made in the skin over the top of the right tibia to expose the tibia head with minimal damage. […]

Structure (SMILES): O=P(O)(O)C(O)(Cn1ccnc1)P(=O)(O)O [Zoledronic acid, reference compound]
- Withdrawal Threshold (Log 10 (force (g) × 10 000)) on Day Post-Operative (Day 6, left paw): 5.35 Log 10 (force (g) × 10 000)
- Withdrawal threshold (g) on day post-operative (Day 6, left paw): 22.55 g
- Withdrawal Threshold (Log 10 (force (g) × 10 000)) on Day Post-Operative (Day 6, right paw): 5.28 Log 10 (force (g) × 10 000)
- Withdrawal threshold (g) on day post-operative (Day 6, right paw): 19.49 g
- Withdrawal Threshold (Log 10 (force (g) × 10 000)) on Day Post-Operative (Day 12, left paw): 5.17 Log 10 (force (g) × 10 000)
- Withdrawal threshold (g) on day post-operative (Day 12, left paw): 15.14 g
- Withdrawal Threshold (Log 10 (force (g) × 10 000)) on Day Post-Operative (Day 12, right paw): 4.98 Log 10 (force (g) × 10 000)
- Withdrawal threshold (g) on day post-operative (Day 12, right paw): 9.95 g
- Withdrawal Threshold (Log 10 (force (g) × 10 000)) on Day Post-Operative (Day 14, left paw): 5.15 Log 10 (force (g) × 10 000)
- Withdrawal threshold (g) on day post-operative (Day 14, left paw): 15.02 g
- Withdrawal Threshold (Log 10 (force (g) × 10 000)) on Day Post-Operative (Day 14, right paw): 4.99 Log 10 (force (g) × 10 000)
- Withdrawal threshold (g) on day post-operative (Day 14, right paw): 10.28 g
- Withdrawal Threshold (Log 10 (force (g) × 10 000)) on Day Post-Operative (Day 19, left paw): 5.14 Log 10 (force (g) × 10 000)
- Withdrawal threshold (g) on day post-operative (Day 19, left paw): 14.66 g
- Withdrawal Threshold (Log 10 (force (g) × 10 000)) on Day Post-Operative (Day 19, right paw): 4.97 Log 10 (force (g) × 10 000)
- Withdrawal threshold (g) on day post-operative (Day 19, right paw): 10.37 g
- Withdrawal Threshold (Log 10 (force (g) × 10 000)) on Day Post-Operative (Day 21, left paw): 5.15 Log 10 (force (g) × 10 000)
- Withdrawal threshold (g) on day post-operative (Day 21, left paw): 15.46 g
- Withdrawal threshold (g) on day post-operative (Day 21, left paw, listed as zoledronic acid): 15.46 ± 2.06 g
- Withdrawal Threshold (Log 10 (force (g) × 10 000)) on Day Post-Operative (Day 21, right paw): 5.04 Log 10 (force (g) × 10 000)
- Withdrawal threshold (g) on day post-operative (Day 21, right paw): 13.25 g
- Withdrawal threshold (g) on day post-operative (Day 21, right paw, listed as zoledronic acid): 13.25 ± 2.28 g
- Withdrawal Threshold (Log 10 (force (g) × 10 000)) on Day Post-Operative (Pre-Surgery, left paw): 5.32 Log 10 (force (g) × 10 000)
- Withdrawal threshold (g) on day post-operative (Pre-Surgery, left paw): 21.02 g
- Withdrawal Threshold (Log 10 (force (g) × 10 000)) on Day Post-Operative (Pre-Surgery, right paw): 5.30 Log 10 (force (g) × 10 000)
- Withdrawal threshold (g) on day post-operative (Pre-Surgery, right paw): 20.26 g
